From PubChem BioAssay AID248 (DTP/NCI, 2004)
Several values for one entry are separate records, joined by “and”; a condition that tells them apart may be missing. Identical values can stand only once. Toxic doses and inconclusive results are not listed.

Tested on: L1210 leukemia ip in BDF1 mice, survival T/C
Assay: NCI In Vivo Anticancer Drug Screen. Data for tumor model L1210 Leukemia (intraperitoneal) in B6D2F1 (BDF1) mice
Conditions: endpoint: mean survival time, higher = longer survival
Procedure, shortened: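 Survival endpoint. Drug-treated group vs vehicle group, expressed as T divided by C. Tumor passaged by transplantation.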

[1] = dose: 100.0 mg/kg/injection, schedule: Q01DX001 (ip), vehicle: Klucel (hydroxypropylcellulose) (HPC)
[2] = dose: 200.0 mg/kg/injection, schedule: Q01DX001 (ip), vehicle: Klucel (hydroxypropylcellulose) (HPC)
[3] = dose: 400.0 mg/kg/injection, schedule: Q01DX001 (ip), vehicle: Klucel (hydroxypropylcellulose) (HPC)
[4] = dose: 100.0 mg/kg/injection, schedule: Q01DX009 (ip), vehicle: Klucel (hydroxypropylcellulose) (HPC)
[5] = dose: 200.0 mg/kg/injection, schedule: Q01DX009 (ip), vehicle: Klucel (hydroxypropylcellulose) (HPC)
[6] = dose: 400.0 mg/kg/injection, schedule: Q01DX009 (ip), vehicle: Klucel (hydroxypropylcellulose) (HPC)
[7] = dose: 100.0 mg/kg/injection, schedule: Q01DX001 (ip), vehicle: saline
[8] = dose: 200.0 mg/kg/injection, schedule: Q01DX001 (ip), vehicle: saline
[9] = dose: 400.0 mg/kg/injection, schedule: Q01DX001 (ip), vehicle: saline
[10] = dose: 100.0 mg/kg/injection, schedule: Q01DX009 (ip), vehicle: saline with Tween-80
[11] = dose: 100.0 mg/kg/injection, schedule: Q04DX003 (ip), vehicle: saline with Tween-80
[12] = dose: 200.0 mg/kg/injection, schedule: Q01DX009 (ip), vehicle: saline with Tween-80
[13] = dose: 200.0 mg/kg/injection, schedule: Q04DX003 (ip), vehicle: saline with Tween-80
[14] = dose: 400.0 mg/kg/injection, schedule: Q04DX003 (ip), vehicle: saline with Tween-80

With `Cc1cc([N+](=O)[O-])cc(Cl)n1` the T/C [1] was 97 % of control, the T/C [2] was 102 % of control and the T/C [3] was 100 % of control.
With `O=S(=O)(O)CCN1CCN(CCS(=O)(=O)O)CC1` the T/C [4] was 95 % of control, the T/C [5] was 95 % of control and the T/C [6] was 101 % of control.
`CNC(=O)OCC1=C(OC)C(=O)C(OC)=CC1=O` was tested, and the T/C (dose: 12.5 mg/kg/injection, schedule: Q01DX009 (ip), vehicle: other) was 90 % of control, the T/C (dose: 12.5 mg/kg/injection, schedule: Q04DX003 (ip), vehicle: other) was 97 % of control and the T/C (dose: 25.0 mg/kg/injection, schedule: Q01DX009 (ip), vehicle: other) was 92 % of control. For the same molecule, the T/C (dose: 25.0 mg/kg/injection, schedule: Q04DX003 (ip), vehicle: other) was 96 % of control, the T/C (dose: 50.0 mg/kg/injection, schedule: Q01DX009 (ip), vehicle: other) was 90 % of control and the T/C (dose: 50.0 mg/kg/injection, schedule: Q04DX003 (ip), vehicle: other) was 100 % of control.
`CCCCCCCCCCCCCCCCC[As](=O)(O)CCCCCCCCCCCCCCCCC` was tested, and the T/C (dose: 50.0 mg/kg/injection, schedule: Q01DX001 (ip), vehicle: saline) was 101 % of control, the T/C [7] was 95 % of control and the T/C [8] was 89 % of control. The T/C [9] was 97 % of control.
`O=C(/C=N/O)Nc1cc(Cl)ccc1Cl` was tested, and the T/C [10] was 91 % of control, the T/C [11] was 97 % of control and the T/C [12] was 87 % of control. For the same molecule, the T/C [13] was 93 % of control, the T/C (dose: 400.0 mg/kg/injection, schedule: Q01DX009 (ip), vehicle: saline with Tween-80) was 88 % of control and the T/C [14] was 108 % of control.
In the case of `C=C1C(=O)OC2C1CCC(C)C1C=CC(=O)C12C` (stereo unspecified), the T/C (dose: 50.0 mg/kg/injection, schedule: Q01DX009 (ip), vehicle: saline) is reported as 98 % of control, the T/C (dose: 100.0 mg/kg/injection, schedule: Q01DX009 (ip), vehicle: saline) is reported as 96 % of control and the T/C (dose: 200.0 mg/kg/injection, schedule: Q01DX009 (ip), vehicle: saline) is reported as 98 % of control.
`C(Cc1ccccc1)=C(CCc1ccccc1)CCc1ccccc1` was tested, and the T/C (dose: 100.0 mg/kg/injection, schedule: Q01DX001 (ip), vehicle: saline with Tween-80) was 104 % of control, the T/C (dose: 200.0 mg/kg/injection, schedule: Q01DX001 (ip), vehicle: saline with Tween-80) was 93 % of control and the T/C (dose: 400.0 mg/kg/injection, schedule: Q01DX001 (ip), vehicle: saline with Tween-80) was 93 % of control.
`O=C(Nc1ccc([N+](=O)[O-])cc1Cl)Oc1ccc(Cl)cc1Cc1ccccc1` was tested, and the T/C [11] was 88 % of control, the T/C [13] was 93 % of control and the T/C [14] was 102 % of control.
With `N#CSCc1ccccc1Cl` the T/C (dose: 6.25 mg/kg/injection, schedule: Q04DX003 (ip), vehicle: Klucel (hydroxypropylcellulose) (HPC)) was 104 % of control, the T/C (dose: 12.5 mg/kg/injection, schedule: Q04DX003 (ip), vehicle: Klucel (hydroxypropylcellulose) (HPC)) was 104 % of control and the T/C (dose: 25.0 mg/kg/injection, schedule: Q04DX003 (ip), vehicle: Klucel (hydroxypropylcellulose) (HPC)) was 93 % of control. For the same molecule, the T/C (dose: 50.0 mg/kg/injection, schedule: Q04DX003 (ip), vehicle: Klucel (hydroxypropylcellulose) (HPC)) was 96 % of control.
For `OCC1OC(n2cnc3c(SCc4ccccc4)ncnc32)C(O)C1O` (stereo unspecified), the T/C (dose: 38.5 mg/kg/injection, schedule: Q01DX009 (ip), vehicle: saline) was 102 % of control, the T/C (dose: 58.0 mg/kg/injection, schedule: Q01DX009 (ip), vehicle: carboxymethylcellulose (CMC)) was 111 % of control and the T/C (dose: 58.0 mg/kg/injection, schedule: Q01DX009 (ip), vehicle: saline) was 124 % of control. For the same molecule, the T/C (dose: 88.0 mg/kg/injection, schedule: Q01DX009 (ip), vehicle: carboxymethylcellulose (CMC)) was 124 % of control, the T/C (dose: 88.0 mg/kg/injection, schedule: Q01DX009 (ip), vehicle: saline) was 152 % of control and the T/C (dose: 132.0 mg/kg/injection, schedule: Q01DX009 (ip), vehicle: carboxymethylcellulose (CMC)) was 113 % of control. The T/C (dose: 132.0 mg/kg/injection, schedule: Q01DX009 (ip), vehicle: saline) was 152 % of control and the T/C (dose: 200.0 mg/kg/injection, schedule: Q01DX009 (ip), vehicle: carboxymethylcellulose (CMC)) was 105 % of control.
`O=C(Nc1ccc(CC2=NCCN2)cc1)c1cccc(C(=O)Nc2ccc(CC3=NCCN3)cc2)c1` was tested, and the T/C (dose: 6.5 mg/kg/injection, schedule: Q01DX Z (ip), vehicle: carboxymethylcellulose (CMC)) was 100 % of control, the T/C (dose: 9.7 mg/kg/injection, schedule: Q01DX Z (ip), vehicle: carboxymethylcellulose (CMC)) was 93 % of control and the T/C (dose: 14.6 mg/kg/injection, schedule: Q01DX Z (ip), vehicle: carboxymethylcellulose (CMC)) was 94 % of control. The T/C (dose: 22.0 mg/kg/injection, schedule: Q01DX Z (ip), vehicle: carboxymethylcellulose (CMC)) was 94 % of control and the T/C (dose: 22.2 mg/kg/injection, schedule: Q01DX Z (ip), vehicle: carboxymethylcellulose (CMC)) was 95 % of control.
`COC(=O)C12CCC(=O)CC1(O)c1ccc(OC)cc1CC2` (stereo unspecified) was tested, and the T/C [1] was 104 % of control, the T/C [2] was 107 % of control and the T/C [3] was 107 % of control.
For `O=NN(CCCl)C(=O)N[C@H]1CCC[C@@H](O)C1`, the T/C (dose: 12.0 mg/kg/injection, schedule: Q01DX001 (ip), vehicle: saline with Tween-80) was 176 % of control, the T/C (dose: 18.0 mg/kg/injection, schedule: Q01DX001 (ip), vehicle: saline with Tween-80) was 306 % of control and the T/C (dose: 26.0 mg/kg/injection, schedule: Q01DX001 (ip), vehicle: saline with Tween-80) was 468 % of control. For the same molecule, the T/C (dose: 40.0 mg/kg/injection, schedule: Q01DX001 (ip), vehicle: saline with Tween-80) was 468 % of control, the T/C (dose: 60.0 mg/kg/injection, schedule: Q01DX001 (ip), vehicle: saline with Tween-80) was 382 % of control and the T/C (dose: 90.0 mg/kg/injection, schedule: Q01DX001 (ip), vehicle: saline with Tween-80) was 86 % of control.
In the case of `O=C(O)c1ncn[nH]1`, the T/C [4] is reported as 95 % of control, the T/C (dose: 100.0 mg/kg/injection, schedule: Q04DX002 (ip), vehicle: Klucel (hydroxypropylcellulose) (HPC)) is reported as 89 % of control and the T/C (dose: 100.0 mg/kg/injection, schedule: Q04DX003 (ip), vehicle: Klucel (hydroxypropylcellulose) (HPC)) is reported as 101 % of control. The T/C [5] was 100 % of control, the T/C (dose: 200.0 mg/kg/injection, schedule: Q04DX002 (ip), vehicle: Klucel (hydroxypropylcellulose) (HPC)) was 115 % of control and the T/C (dose: 200.0 mg/kg/injection, schedule: Q04DX003 (ip), vehicle: Klucel (hydroxypropylcellulose) (HPC)) was 95 % of control. For the same molecule, the T/C [6] was 100 % of control, the T/C (dose: 400.0 mg/kg/injection, schedule: Q04DX002 (ip), vehicle: Klucel (hydroxypropylcellulose) (HPC)) was 89 % of control and the T/C (dose: 400.0 mg/kg/injection, schedule: Q04DX003 (ip), vehicle: Klucel (hydroxypropylcellulose) (HPC)) was 108 % of control.
With `N#CC(NC(N)=O)(c1ccccc1)c1ccccc1` the T/C (dose: 50.0 mg/kg/injection, schedule: Q01DX001 (ip), vehicle: carboxymethylcellulose (CMC)) was 91 % of control, the T/C (dose: 100.0 mg/kg/injection, schedule: Q01DX001 (ip), vehicle: carboxymethylcellulose (CMC)) was 107 % of control and the T/C (dose: 200.0 mg/kg/injection, schedule: Q01DX001 (ip), vehicle: carboxymethylcellulose (CMC)) was 96 % of control. For the same molecule, the T/C (dose: 400.0 mg/kg/injection, schedule: Q01DX001 (ip), vehicle: carboxymethylcellulose (CMC)) was 91 % of control.
`O=C1CSC(=NCCN=C2NC(=O)CS2)N1` was tested, and the T/C [7] was 104 % of control, the T/C [8] was 111 % of control and the T/C [9] was 102 % of control.
`Cc1ccc(NC(=O)OCCOc2cc(C)c(Cl)c(C)c2)cc1[N+](=O)[O-]` was tested, and the T/C (dose: 50.0 mg/kg/injection, schedule: Q01DX009 (ip), vehicle: saline with Tween-80) was 87 % of control, the T/C [10] was 101 % of control and the T/C [12] was 90 % of control.
In the case of `ClCC1CC2C=CC1C2` (stereo unspecified), the T/C (dose: 12.5 mg/kg/injection, schedule: Q01DX009 (ip), vehicle: Klucel (hydroxypropylcellulose) (HPC)) is reported as 100 % of control, the T/C (dose: 25.0 mg/kg/injection, schedule: Q01DX009 (ip), vehicle: Klucel (hydroxypropylcellulose) (HPC)) is reported as 100 % of control and the T/C (dose: 25.0 mg/kg/injection, schedule: Q04DX002 (ip), vehicle: saline with Tween-80) is reported as 102 % of control. For the same molecule, the T/C (dose: 50.0 mg/kg/injection, schedule: Q01DX009 (ip), vehicle: Klucel (hydroxypropylcellulose) (HPC)) was 93 % of control and 98 % of control and the T/C (dose: 50.0 mg/kg/injection, schedule: Q04DX002 (ip), vehicle: saline with Tween-80) was 88 % of control.
